Source: US10406124B2, “Method of treatment of gynecological cancer with anti-RAGE antibodies” (Swansea University, priority 2014, dated 2019)
pIC50: −log10 of the molar value. Read-outs that look alike come from different tables or passages of the source. Non-standard residues stand in square brackets, D forms with d. Residues, ends and D or L forms follow the SMILES beside them. *: point of attachment. Dolaproine = CO[C@@H]([C@@H]1CCCN1)[C@@H](C)C(=O)O; Dil = CC[C@H](C)[C@H](NC)[C@@H](CC(=O)O)OC; X1 = C[C@@H](N*)[C@@H](O)c1ccccc1; NMeV = CN[C@H](C(=O)O)C(C)C

Legend:
Ishikawa cells = test: Cell viability / cytotoxicity of RAGE ADCs in Ishikawa endometrial cancer cells; type: cell-based; conditions: Homo sapiens, read-out: IC50 of drug alone
Protocol: (§1) Endometrial (Ishikawa) or ovarian (TOV112D) cancer cells were cultured in 96-well plates and treated with an extended concentration range of MMAE, MMAF, RAGE MMAE or RAGE MMAF for 24 or 48 h. Data was analysed by non-linear regression and IC50 concentrations determined for each treatment.
After treatment, cell viability in both cell lines (FIG. 13), and cell apoptosis in Ishikawa cells (caspase activation; FIG. 14) were determined by a fluorescence-based cell viability assay (Apotox Glo Triplex assay, Promega) according to the manufacturer's instructions. Data are presented as box plots showing the median (line), 25th and 75th percentiles (box) and 10th and 90th percentile (whiskers), n=4. Data were analysed by ANOVA and Dunnett's pairwise multiple comparison t-test. […]

TOV112D cells = test: Cell viability / cytotoxicity of RAGE ADCs in TOV112D ovarian cancer cells; type: cell-based, human; conditions: 24 h, free cytotoxin
Protocol: as §1
Data are presented as box plots showing the median (line), 25th and 75th percentiles (box) and 10th and 90th percentile (whiskers), n=4. Data were analysed by ANOVA and Dunnett's pairwise multiple comparison t-test.
The linkers used in Examples 3 & 4 were directly compared. […] After treatment, cell viability (FIG. 17) was determined by a fluorescence-based cell viability assay (Apotox Glo Triplex assay, Promega) according to the manufacturer's instructions. […] Data were analysed by ANOVA and Dunnett's pairwise multiple comparison t-test. […]
Comparisons of the AA4, HG6 and DF6 ADCs to the SNIPER ADC were made within normal ovarian (HOSEpic) and ovarian cancer (TOV112D and SKOV3) cells, and normal endometrial (Healthy) and endometrial cancer (HEC1A, HEC1B and Ishikawa) cells. Cells were treated for 96 h with 5 μg/ml of each of the ADCs, and cell health monitored as previously described. […] Data are presented as mean (SEM), and were analysed by ANOVA and Dunnett's pairwise multiple comparison t-test.

RAGE = RAGE protein expression by immunohistochemistry in endometrial biopsies of patients taking tamoxifen; type: in vivo, human
Protocol: RAGE protein expression was measured by Immunohistochemistry in endometrial biopsies from patients diagnosed with endometrial hyperplasia, Type I or Type II endometrial cancer (EC), postmenopausal controls as well as breast cancer patients taking tamoxifen as part of their treatment that have developed, or not, endometrial cancer. 138 patients were grouped as follows: PM (n=25, median=0.2), Hyperplasia (n=21, median=5.5), type I EC (n=18, median=1.5), type II EC (n=17, median=2), TX no EC (n=19, median=4), type I EC plus TX (n=21, median=4) and type II EC plus TX (n=17, median=0.2).
IHC samples were scored blind by three independent observers. Values shown are median IHC scores and statistical analysis was performed using a Mann-Whitney test *p<0.05, **p<0.01, ***p<0.001, compared to PM control.

CC[C@H](C)[C@@H]([C@@H](CC(=O)N1CCC[C@H]1[C@H](OC)[C@@H](C)C(=O)N[C@H](C)[C@@H](O)c1ccccc1)OC)N(C)C(=O)[C@@H](NC(=O)[C@@H](NC)C(C)C)C(C)C [MMAE, (S)—N-((3R,4S,5S)-1-((S)-2-((1R,2R)-3-(((1S,2R)-1-hydroxy-1-phenylpropan-2-yl)amino)-1-methoxy-2-methyl-3-oxopropyl)pyrrolidin-1-yl)-3-methoxy-5-methyl-1-oxoheptan-4-yl)-N,3-dimethyl-2-((S)-3-methyl-2-(methylamino)butanamido)butanamide] (H-[NMeV]V[Dil][Dolaproine]-X1)
pIC50 (Ishikawa cells; 24 h): 5.85 | pIC50 (Ishikawa cells; 48 h): 6.34 | IC50 of drug alone (TOV112D cells): greater than the top concentration tested

CC[C@H](C)[C@@H]([C@@H](CC(=O)N1CCC[C@H]1[C@H](OC)[C@@H](C)C(=O)N[C@@H](Cc1ccccc1)C(=O)O)OC)N(C)C(=O)[C@@H](NC(=O)[C@@H](NC)C(C)C)C(C)C [MMAF, (S)-2-((2R,3R)-3-((S)-1-((3R,4S,5S)-4-((S)—N,3-dimethyl-2-((S)-3-methyl-2-(methylamino)butanamido)butanamido)-3-methoxy-5-methylheptanoyl)pyrrolidin-2-yl)-3-methoxy-2-methylpropanamido)-3-phenylpropanoic acid] (H-[NMeV]V[Dil][Dolaproine]F-OH)
pIC50 (Ishikawa cells; 24 h): 5.89 | pIC50 (Ishikawa cells; 48 h): 6.20 | IC50 of drug alone (TOV112D cells): greater than the top concentration tested

CC/C(=C(\c1ccccc1)c1ccc(OCCN(C)C)cc1)c1ccccc1 [tamoxifen]
RAGE expression, median IHC score (RAGE; breast cancer patients taking tamoxifen, no endometrial cancer (TX no EC), n=19): 4 | effect on endometrial RAGE expression (RAGE; endometrium from EC patients taking vs not taking tamoxifen): upregulation of RAGE | RAGE expression, median IHC score (RAGE; type I EC plus TX, n=21): 4 | RAGE expression, median IHC score (RAGE; type II EC plus TX, n=17): 0.2
